In ChEMBL document CHEMBL5042472, “Design, Synthesis, and Biological Evaluation of a Novel Photocaged PI3K Inhibitor toward Precise Cancer Treatment” (J Med Chem, 2021):
pIC50: −log10 of the molar value.

Tests used:
[1] = Retention time of the compound by HPLC analysis; type: physicochemical
BGC-823 = assay: Antiproliferative activity against human BGC-823 cells assessed as reduction in cell viability incubated in dark for 96 hrs by MTT assay; type: functional, cell-based; settings: BGC-823, 96 h
MGC-803 = assay: Antiproliferative activity against human MGC-803 cells assessed as reduction in cell viability incubated in dark for 96 hrs by MTT assay; type: functional, cell-based; settings: MGC-803, 96 h
AGS = assay: Antiproliferative activity against human AGS cells assessed as reduction in cell viability incubated in dark for 96 hrs by MTT assay; type: functional, cell-based
HGC-27 = assay: Antiproliferative activity against human HGC-27 cells assessed as reduction in cell viability incubated in dark for 96 hrs by MTT assay; type: functional, cell-based; settings: HGC-27, 96 h
HCT-116 = assay: Antiproliferative activity against human HCT-116 cells assessed as reduction in cell viability incubated in dark for 96 hrs by MTT assay; type: functional, cell-based; settings: HCT-116, 96 h
MG-63 = assay: Antiproliferative activity against human MG-63 cells assessed as reduction in cell viability incubated in dark for 96 hrs by MTT assay; type: functional, cell-based; settings: MG-63, 96 h
[2] = Plasma protein binding in rat at 1 uM by LC-MS/MS analysis; type: ADME, cell-free; settings: read-out: PPB (converted)
[3] = Stability in rat plasma assessed as half life at 1 uM measured upto 120 min by LC-MS/MS analysis; type: ADME, cell-free
[4] = Stability in rat liver microsomes assessed as half life at 1 uM in presence of NADPH by LC-MS/MS analysis; type: ADME, Microsome
[5] = Apparent permeability across apical to basolateral side in human Caco-2 cells at 10 uM incubated for 2 hrs by LC-MS/MS analysis; type: ADME, cell-based
[6] = Apparent permeability across basolateral to apical side in human Caco-2 cells at 10 uM incubated for 2 hrs by LC-MS/MS analysis; type: ADME, cell-based
[7] = Plasma protein binding in dog at 1 uM by LC-MS/MS analysis; type: ADME, cell-free, Canis lupus familiaris; settings: read-out: PPB (converted)
[8] = Stability in dog plasma assessed as half life at 1 uM measured upto 120 min by LC-MS/MS analysis; type: ADME, cell-free, Canis lupus familiaris
[9] = Stability in dog liver microsomes assessed as half life at 1 uM in presence of NADPH measured upto 120 min by LC-MS/MS analysis; type: ADME, Canis lupus familiaris, Microsome

Retention_time [1]: 5.2 min | pIC50 (BGC-823): 7.73 | pIC50 (MGC-803): 7.83 | pIC50 (AGS): 8.20 | pIC50 (HCT-116): 7.63 | fraction unbound at 1 µM [2]: 0.017 | half-life at 1 µM [3]: > 2 h | half-life at 1 µM [4]: 1.73 h | Papp A→B at 2 h, 10 µM [5]: 21.2 ×10⁻⁶ cm/s | Papp B→A at 2 h, 10 µM [6]: 26.5 ×10⁻⁶ cm/s | fraction unbound at 1 µM [7]: 0.017 | half-life at 1 µM [8]: > 2 h | half-life at 1 µM [9]: > 2 h
SMILES: COc1ncc(-c2cc(OC3CCOCC3)c3ncnc(C)c3c2)cc1NS(=O)(=O)c1ccc(F)cc1F
pIC50 (HGC-27): 9.12 | pIC50 (MG-63): 8.24
